# Reference: patent US20210335449A1, “Method or System for Identification of a Causative Mutation Causing a Phenotype of Interest in a Test Sample” (Oxford University Innovation Limited, priority 2018, published 2021)
# System: Marchantia polymorpha wild-type plants
# Test: Chlorsulfuron resistance determination (survival two weeks after exposure to a lethal dose)
# Type: in vivo
# Conditions: 0.1 ppm dose (lethal dose); survival assessed two weeks following exposure
# Procedure: Marchantia polymorpha spores were irradiated with ultraviolet B irradiation and seven independent mutant lines resistant to the herbicide chlorsulfuron were identified. Chlorsulfuron resistance was determined by a Marchantia polymorpha plant that was alive two weeks following exposure to a lethal dose of Chlorsulfuron (0.1 ppm dose, i.e. a dose sufficient to kill 100% of wild-type plants).
smiles,measurement,value
COc1nc(C)nc(NC(=O)NS(=O)(=O)c2ccccc2Cl)n1 [Chlorsulfuron],wild-type plants killed,100%
